Tested on: β-catenin transcriptional activity (pTOPFLASH reporter) in 293T cells
Assay: TOPFLASH β-catenin luciferase reporter assay in transfected 293T cells
Format: cell-based, human
Conditions: NAM added eight hours after transfection, harvested 24 h post-transfection, normalized to Renilla luciferase, FIG. 4F

For NC(=O)c1cccnc1 [nicotinamide], the “luciferase reporter activity (pTOPFLASH β-catenin reporter)” value was “increased luciferase reporter activity”.
